Where only a bound is given, the exact number is not on record here.

In one test the target is human Cav2.2 (Homo sapiens, UniProt Q00975). Description: Assessment of calcium channel activity using FLIPR (Ca2+ influx in IMR32 cells).
Chain of human Cav2.2 (Q00975 whole entry): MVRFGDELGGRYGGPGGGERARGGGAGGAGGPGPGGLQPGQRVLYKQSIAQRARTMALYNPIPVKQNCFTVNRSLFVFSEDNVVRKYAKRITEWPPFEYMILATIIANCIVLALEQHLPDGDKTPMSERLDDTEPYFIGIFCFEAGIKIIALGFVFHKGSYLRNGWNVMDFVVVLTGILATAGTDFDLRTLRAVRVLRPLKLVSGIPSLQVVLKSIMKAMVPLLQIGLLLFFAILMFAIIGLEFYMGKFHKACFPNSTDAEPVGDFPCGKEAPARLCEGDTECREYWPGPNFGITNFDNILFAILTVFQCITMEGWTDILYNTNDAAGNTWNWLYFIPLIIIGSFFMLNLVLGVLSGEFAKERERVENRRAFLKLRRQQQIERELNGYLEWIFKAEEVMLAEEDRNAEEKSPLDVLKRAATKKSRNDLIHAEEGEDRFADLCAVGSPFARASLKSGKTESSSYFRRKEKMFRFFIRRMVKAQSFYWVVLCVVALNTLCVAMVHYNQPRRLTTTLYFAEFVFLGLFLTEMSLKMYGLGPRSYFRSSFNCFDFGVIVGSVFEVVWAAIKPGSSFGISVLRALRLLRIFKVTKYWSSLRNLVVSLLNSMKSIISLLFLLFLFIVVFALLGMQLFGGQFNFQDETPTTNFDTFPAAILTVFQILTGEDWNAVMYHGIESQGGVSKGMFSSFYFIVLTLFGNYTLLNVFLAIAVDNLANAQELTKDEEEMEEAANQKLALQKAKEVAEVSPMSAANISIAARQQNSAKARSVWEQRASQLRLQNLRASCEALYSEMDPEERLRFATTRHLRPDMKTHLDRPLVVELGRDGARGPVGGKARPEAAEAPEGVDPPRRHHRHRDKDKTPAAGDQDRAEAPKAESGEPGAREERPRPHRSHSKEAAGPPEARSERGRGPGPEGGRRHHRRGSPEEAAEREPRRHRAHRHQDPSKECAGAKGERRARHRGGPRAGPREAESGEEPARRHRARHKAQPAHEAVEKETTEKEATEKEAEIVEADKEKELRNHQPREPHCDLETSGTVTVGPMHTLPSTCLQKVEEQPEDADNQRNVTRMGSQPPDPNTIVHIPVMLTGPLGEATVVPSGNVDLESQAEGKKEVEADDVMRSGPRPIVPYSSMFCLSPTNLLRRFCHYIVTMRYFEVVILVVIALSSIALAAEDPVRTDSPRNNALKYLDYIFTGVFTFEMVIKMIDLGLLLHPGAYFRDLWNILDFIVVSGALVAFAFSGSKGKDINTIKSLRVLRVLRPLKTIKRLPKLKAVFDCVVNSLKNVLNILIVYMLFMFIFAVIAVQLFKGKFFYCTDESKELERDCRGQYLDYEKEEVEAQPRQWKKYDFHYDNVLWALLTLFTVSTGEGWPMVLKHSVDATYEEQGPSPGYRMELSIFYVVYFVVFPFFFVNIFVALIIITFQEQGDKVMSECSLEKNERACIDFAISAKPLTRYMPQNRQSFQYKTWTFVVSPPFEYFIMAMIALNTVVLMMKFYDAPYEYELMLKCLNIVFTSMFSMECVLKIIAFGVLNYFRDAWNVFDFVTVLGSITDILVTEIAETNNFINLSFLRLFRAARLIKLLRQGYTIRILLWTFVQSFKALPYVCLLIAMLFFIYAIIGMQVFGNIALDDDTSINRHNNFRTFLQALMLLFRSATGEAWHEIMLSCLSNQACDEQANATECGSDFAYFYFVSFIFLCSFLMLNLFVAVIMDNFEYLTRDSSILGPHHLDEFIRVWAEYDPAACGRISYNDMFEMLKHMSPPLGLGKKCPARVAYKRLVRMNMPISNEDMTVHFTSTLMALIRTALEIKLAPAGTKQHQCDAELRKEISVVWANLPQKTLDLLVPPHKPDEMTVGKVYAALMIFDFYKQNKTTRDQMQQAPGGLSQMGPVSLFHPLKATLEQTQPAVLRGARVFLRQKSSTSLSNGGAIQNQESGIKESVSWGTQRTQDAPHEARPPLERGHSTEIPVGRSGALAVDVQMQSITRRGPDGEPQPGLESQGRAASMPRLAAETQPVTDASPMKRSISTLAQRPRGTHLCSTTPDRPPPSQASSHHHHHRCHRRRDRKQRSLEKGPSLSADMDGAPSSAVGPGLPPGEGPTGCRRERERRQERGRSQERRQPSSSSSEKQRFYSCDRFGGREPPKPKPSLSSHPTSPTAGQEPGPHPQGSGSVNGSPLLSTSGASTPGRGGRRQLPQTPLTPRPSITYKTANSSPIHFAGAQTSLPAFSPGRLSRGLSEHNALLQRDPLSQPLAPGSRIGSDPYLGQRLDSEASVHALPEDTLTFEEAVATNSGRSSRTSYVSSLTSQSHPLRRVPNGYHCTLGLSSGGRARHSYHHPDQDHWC
Chain of human Cav2.2 (P54289 25-956 partner limits assumed): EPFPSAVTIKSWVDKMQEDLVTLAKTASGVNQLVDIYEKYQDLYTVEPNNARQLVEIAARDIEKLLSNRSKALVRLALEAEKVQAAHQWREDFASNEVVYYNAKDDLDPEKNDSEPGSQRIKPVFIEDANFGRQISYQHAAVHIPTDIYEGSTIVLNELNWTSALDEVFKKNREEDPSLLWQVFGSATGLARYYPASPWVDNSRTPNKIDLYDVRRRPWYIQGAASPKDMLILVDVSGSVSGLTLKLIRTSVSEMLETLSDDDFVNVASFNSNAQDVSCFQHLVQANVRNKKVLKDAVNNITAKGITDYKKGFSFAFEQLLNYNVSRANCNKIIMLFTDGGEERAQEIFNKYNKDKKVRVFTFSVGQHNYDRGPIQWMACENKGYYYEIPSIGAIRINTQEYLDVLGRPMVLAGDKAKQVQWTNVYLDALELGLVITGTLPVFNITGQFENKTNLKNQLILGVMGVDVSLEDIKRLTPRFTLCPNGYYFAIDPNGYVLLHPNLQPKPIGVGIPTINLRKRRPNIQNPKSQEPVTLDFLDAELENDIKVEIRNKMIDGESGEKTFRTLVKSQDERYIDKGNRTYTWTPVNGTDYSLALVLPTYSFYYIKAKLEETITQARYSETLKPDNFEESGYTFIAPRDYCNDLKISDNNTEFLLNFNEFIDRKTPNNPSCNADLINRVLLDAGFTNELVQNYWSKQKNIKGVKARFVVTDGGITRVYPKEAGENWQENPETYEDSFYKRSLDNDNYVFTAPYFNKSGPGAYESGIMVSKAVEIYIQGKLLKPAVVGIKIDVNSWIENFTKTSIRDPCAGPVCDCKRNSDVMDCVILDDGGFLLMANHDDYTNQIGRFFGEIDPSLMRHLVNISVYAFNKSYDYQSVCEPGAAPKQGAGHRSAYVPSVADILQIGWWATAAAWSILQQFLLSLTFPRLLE
Chain of human Cav2.2 (P54289 957-1103 partner limits assumed): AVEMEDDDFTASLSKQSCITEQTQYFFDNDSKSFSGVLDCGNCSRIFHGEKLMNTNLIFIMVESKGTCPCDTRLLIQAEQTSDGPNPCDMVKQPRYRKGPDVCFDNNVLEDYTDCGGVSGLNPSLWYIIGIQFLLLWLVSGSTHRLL
Chain of human Cav2.2 (P54284 whole entry partner): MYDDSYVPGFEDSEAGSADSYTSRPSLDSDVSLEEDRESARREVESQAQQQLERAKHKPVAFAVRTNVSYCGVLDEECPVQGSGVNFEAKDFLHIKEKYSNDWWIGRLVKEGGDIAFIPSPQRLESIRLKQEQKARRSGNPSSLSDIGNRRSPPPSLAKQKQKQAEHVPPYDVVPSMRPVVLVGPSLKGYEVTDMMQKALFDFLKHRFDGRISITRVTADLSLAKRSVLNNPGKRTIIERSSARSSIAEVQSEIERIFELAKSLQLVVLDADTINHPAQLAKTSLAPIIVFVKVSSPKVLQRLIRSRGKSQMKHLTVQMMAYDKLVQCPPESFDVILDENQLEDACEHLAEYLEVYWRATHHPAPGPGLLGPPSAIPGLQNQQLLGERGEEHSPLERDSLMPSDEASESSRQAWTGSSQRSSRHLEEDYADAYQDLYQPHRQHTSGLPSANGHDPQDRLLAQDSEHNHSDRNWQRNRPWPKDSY
Conditions: not given
It counts as cell-based. An outline of the steps: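 Human neuroblastoma IMR32 cells were seeded at 1−1.2×10^5 cells/well and cultured 48 h at 37 °C before FLIPR calcium influx measurement. Percent inhibition at each concentration was calculated against the no-inhibitor signal, and IC50 came from sigmoidal dose-response fits.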
For the compound `O=C(N[C@H]1CC[C@H]2CN(Cc3cccc(C(F)(F)F)c3)C[C@H]21)C1CCCC1` (relative stereo) [Example 129, N-{(3aS*,4S*,6aR*)-2-[3-(trifluoromethyl)benzyl]octahydrocyclopenta[c]pyrrol-4-yl}cyclopentanecarboxamide], the half-maximal inhibitory concentration (IC50) turned out to be 2.31 µM.

With `CCC[C@H](NC)C(=O)N[C@H]1CC[C@@H]2CN(S(=O)(=O)c3ccco3)C[C@@H]21` [Example 547, N^1-[(3aR,4S,6aS)-2-(2-furylsulfonyl)octahydrocyclopenta[c]pyrrol-4-yl]-N^2-methyl-L-norvalinamide], the IC50 was over 30 µM. `N#Cc1ccccc1N1C[C@H]2CC[C@H](NC(=O)[C@@H]3C[C@@H](F)CN3)[C@H]2C1` [Example 651, (4R)-N-[(3aR,4S,6aS)-2-(2-cyanophenyl)octahydrocyclopenta[c]pyrrol-4-yl]-4-fluoro-L-prolinamide]: the half-inhibitory concentration (IC50) stood at 14.9 µM. On to `Cc1cnc(C(=O)N[C@H]2CC[C@@H]3CN(c4cccc(C(F)(F)F)n4)C[C@@H]32)cn1` [Example 579, 5-methyl-N-{(3aR,4S,6aS)-2-[6-(trifluoromethyl)pyridin-2-yl]octahydrocyclopenta[c]pyrrol-4-yl}pyrazine-2-carboxamide], for which the IC50 came to 2.63 µM. Take `O=C(Nc1ccc(F)cc1)N[C@H]1CC[C@@H]2CN(c3cccc(C(F)(F)F)n3)C[C@@H]21` [Example 709, 1-(4-fluorophenyl)-3-{(3aR,4S,6aS)-2-[6-(trifluoromethyl)pyridin-2-yl]octahydrocyclopenta[c]pyrrol-4-yl}urea]: the 50% inhibitory concentration (IC50) stood at 6.18 µM. On the same count and under the same terms, for `CN[C@@H](CC(C)C)C(=O)N[C@H]1CC[C@@H]2CN(c3ccc(C)cc3)C[C@@H]21` [Example 648, N^2-methyl-N-[(3aR,4S,6aS)-2-(4-methylphenyl)octahydrocyclopenta[c]pyrrol-4-yl]-L-leucinamide] the value was 3.55 µM. `O=C(N[C@@H]1CC[C@H]2CN(Cc3cccc(C(F)(F)F)c3)C[C@H]21)C(C1CCCCC1)C1CCCCC1` [Example 75, 2,2-dicyclohexyl-N-{(3aS,4R,6aR)-2-[3-(trifluoromethyl)benzyl]octahydrocyclopenta[c]pyrrol-4-yl}acetamide]: the IC50 stood at 0.45 µM. Consider `O=C(N[C@H]1CC[C@@H]2CN(c3ccccc3Cl)C[C@@H]21)[C@@H]1C[C@@H](F)CN1` [Example 659, (4R)-N-[(3aR,4S,6aS)-2-(2-chlorophenyl)octahydrocyclopenta[c]pyrrol-4-yl]-4-fluoro-L-prolinamide], for which the IC50 was 6.85 µM. On to `Fc1ccc(-c2nc(CN[C@H]3CC[C@@H]4CN(c5cccc(C(F)(F)F)n5)C[C@@H]43)co2)cc1` [Example 743, (3aR,4S,6aS)-N-{[2-(4-fluorophenyl)-1,3-oxazol-4-yl]methyl}-2-[6-(trifluoromethyl)pyridin-2-yl]octahydrocyclopenta[c]pyrrol-4-amine], for which the IC50 came out at 1 µM. Take `O=C(N[C@H]1CC[C@H]2CN(Cc3cccc(C(F)(F)F)c3)C[C@H]21)C(O)C1CCCCC1` (stereo partly drawn) [Example 237, 2-cyclohexyl-2-hydroxy-N-{(3aS,4S,6aR)-2-[3-(trifluoromethyl)benzyl]octahydrocyclopenta[c]pyrrol-4-yl}acetamide]: the half-maximal inhibitory concentration (IC50) was 1.46 µM.

Take `CN[C@H](C(=O)N[C@H]1CC[C@@H]2CN(c3cccc(OC(F)(F)F)c3)C[C@@H]21)C(C)C` [Example 758, N^2-methyl-N-{(3aR,4S,6aS)-2-[3-(trifluoromethoxy)phenyl]octahydrocyclopenta[c]pyrrol-4-yl}-L-valinamide]: the IC50 was 1.42 µM. Take `O=C(N[C@H]1CC[C@H]2CNC[C@H]21)C(C1CCCCC1)C1CCCCC1` [Example 53, 2,2-dicyclohexyl-N-[(3aS,4S,6aR)-octahydrocyclopenta[c]pyrrol-4-yl]acetamide]: the concentration for half-maximal inhibition (IC50) worked out at 8.54 µM. As to `FC(F)(F)c1ccc(-c2nc(CN[C@H]3CC[C@@H]4CN(c5cccc(C(F)(F)F)n5)C[C@@H]43)c[nH]2)cc1` [Example 742, (3aR,4S,6aS)-N-({2-[4-(trifluoromethyl)phenyl]-1H-imidazol-4-yl}methyl)-2-[6-(trifluoromethyl)pyridin-2-yl]octahydrocyclopenta[c]pyrrol-4-amine], the half-maximal inhibitory concentration (IC50) was found to be 1.3 µM. With `CC(C)(C)C[C@@H](C(=O)N[C@H]1CC[C@@H]2CN(S(=O)(=O)c3ccc(C(F)(F)F)cc3)C[C@@H]21)N(C1CC1)C1CC1` [Example 500, N^2,N^2-dicyclopropyl-4-methyl-N^1-((3aR,4S,6aS)-2-{[4-(trifluoromethyl)phenyl]sulfonyl}octahydrocyclopenta[c]pyrrol-4-yl)-L-leucinamide], the half-inhibitory concentration (IC50) came out at 1.69 µM. `O=S(=O)(N[C@H]1CC[C@@H]2CN(c3cccc(C(F)(F)F)n3)C[C@@H]21)c1cccc(Cl)c1` [Example 704, 3-chloro-N-{(3aR,4S,6aS)-2-[6-(trifluoromethyl)pyridin-2-yl]octahydrocyclopenta[c]pyrrol-4-yl}benzenesulfonamide]: the IC50 was 4.63 µM. Same read-out and setting: for `O=C(N[C@H]1CC[C@@H]2CN(c3ccc(F)cc3)C[C@@H]21)[C@@H]1C[C@@H](F)CN1` [Example 641, (4R)-4-fluoro-N-[(3aR,4S,6aS)-2-(4-fluorophenyl)octahydrocyclopenta[c]pyrrol-4-yl]-L-prolinamide] the value was 26.2 µM; for `CC(C)C[C@@H](C(=O)N[C@@H]1CC[C@H]2CN(Cc3ccccc3)C[C@H]21)N1CCCC1` [Example 250, (2S)-N-[(3aS,4R,6aR)-2-benzyloctahydrocyclopenta[c]pyrrol-4-yl]-4-methyl-2-pyrrolidin-1-ylpentanamide], over 30 µM. Still for that read-out and setting: for `O=C(N[C@H]1CC[C@@H]2CN(Cc3cccc(C(F)(F)F)c3)C[C@@H]21)C(C1CCCCC1)C1CCCCC1` [Example 156, 2,2-dicyclohexyl-N-{(3aR,4S,6aS)-2-[3-(trifluoromethyl)benzyl]octahydrocyclopenta[c]pyrrol-4-yl}acetamide] the value was 0.76 µM; for `CC(C)(C)C[C@H](N)C(=O)N[C@H]1CC[C@@H]2CN(S(=O)(=O)c3cccc(C(F)(F)F)c3)C[C@@H]21` [Example 392, 4-methyl-N^1-((3aR,4S,6aS)-2-{[3-(trifluoromethyl)phenyl]sulfonyl}octahydrocyclopenta[c]pyrrol-4-yl)-L-leucinamide], 0.95 µM; for `CN[C@@H](CC(C)(C)C)C(=O)N[C@H]1CC[C@@H]2CN(S(=O)(=O)c3ccc(C(F)(F)F)cc3)C[C@@H]21` [Example 415, N^2,4-dimethyl-N^1-((3aR,4S,6aS)-2-{[4-(trifluoromethyl)phenyl]sulfonyl}octahydrocyclopenta[c]pyrrol-4-yl)-L-leucinamide], 1.31 µM. Regarding `FC(F)(F)c1cccc(N2C[C@H]3CC[C@H](NCc4c[nH]c(-c5ccccc5)n4)[C@H]3C2)n1` [Example 688, (3aR,4S,6aS)-N-[(2-phenyl-1H-imidazol-4-yl)methyl]-2-[6-(trifluoromethyl)pyridin-2-yl]octahydrocyclopenta[c]pyrrol-4-amine], the half-inhibitory concentration (IC50) worked out at 1.03 µM. Turning to `FC(F)(F)c1cccc(N2C[C@H]3CC[C@H](NCc4cn[nH]c4)[C@H]3C2)n1` [Example 696, (3aR,4S,6aS)-N-(1H-pyrazol-4-ylmethyl)-2-[6-(trifluoromethyl)pyridin-2-yl]octahydrocyclopenta[c]pyrrol-4-amine], the IC50 turned out to be 3.52 µM.

Staying with this test, now noted: read-out: IC50 (μM) or percent inhibition (* indicates 3 minute incubation, otherwise 60 minute); IC50; 60 minute pre-incubation with compound; IMR32 cells, 80 mM KCl depolarization.
On to `CC(C)(C)C(C(=O)N[C@@H]1CC[C@H]2CN(Cc3cccc(C(F)(F)F)c3)C[C@H]21)c1ccccc1` (relative stereo) [Example 147, 3,3-dimethyl-2-phenyl-N-{(3aS*,4R*,6aR*)-2-[3-(trifluoromethyl)benzyl]octahydrocyclopenta[c]pyrrol-4-yl}butanamide], for which the IC50 is 0.51 µM. With `O=C(CC(c1ccc(F)cc1)c1ccc(F)cc1)N[C@@H]1CC[C@H]2CN(Cc3cccc(C(F)(F)F)c3)C[C@H]21` (relative stereo) [Example 143, 3,3-bis(4-fluorophenyl)-N-{(3aS*,4R*,6aR*)-2-[3-(trifluoromethyl)benzyl]octahydrocyclopenta[c]pyrrol-4-yl}propanamide], the concentration for half-maximal inhibition (IC50) is 0.61 µM. Take `O=C(N[C@@H]1CC[C@H]2CN(C(c3ccccc3)c3ccccc3)C[C@H]21)C(C1CCCCC1)C1CCCCC1` [Example 121, N-[(3aS,4R,6aR)-2-benzhydryloctahydrocyclopenta[c]pyrrol-4-yl]-2,2-dicyclohexylacetamide]: the IC50 was found to be 14.3 µM. With `CC(C)C(C(=O)N[C@H]1CC[C@@H]2CN(CCCCC(c3ccc(F)cc3)c3ccc(F)cc3)C[C@@H]21)c1ccccc1` (stereo partly drawn) [Example 119, N-{(3aR,4S,6aS)-2-[5,5-bis(4-fluorophenyl)pentyl]octahydrocyclopenta[c]pyrrol-4-yl}-3-methyl-2-phenylbutanamide], the 50% inhibitory concentration (IC50) is 1.12 µM. On the same count and under the same terms, for `CC(C)C(C(=O)N[C@H]1CC[C@@H]2CN(CCC(c3ccccc3)c3ccccc3)C[C@@H]21)c1ccccc1` (stereo partly drawn) [Example 116, N-[(3aR,4S,6aS)-2-(3,3-diphenylpropyl)octahydrocyclopenta[c]pyrrol-4-yl]-3-methyl-2-phenylbutanamide] the value was 1.17 µM.

As for `CC(C)C(C(=O)N[C@H]1CC[C@H]2CN(Cc3ccccc3)C[C@H]21)c1ccccc1` (stereo partly drawn) [Example 14, N-[(3aS,4S,6aR)-2-benzyloctahydrocyclopenta[c]pyrrol-4-yl]-3-methyl-2-phenylbutanamide], the half-maximal inhibitory concentration (IC50) turned out to be 3.79 µM. On to `O=S(=O)(N[C@@H]1CC[C@H]2CN(CCCCCC(c3ccc(F)cc3)c3ccc(F)cc3)C[C@H]21)c1cccc(C(F)(F)F)c1` [Example 191, N-{(3aS,4R,6aR)-2-[6,6-bis(4-fluorophenyl)hexyl]octahydrocyclopenta[c]pyrrol-4-yl}-3-(trifluoromethyl)benzenesulfonamide], for which the half-inhibitory concentration (IC50) worked out at 0.51 µM. On to `O=C(N[C@H]1CC[C@H]2CN(Cc3cc(C(F)(F)F)cc(C(F)(F)F)c3)C[C@H]21)C(C1CCCCC1)C1CCCCC1` [Example 59, N-{(3aS,4S,6aR)-2-[3,5-bis(trifluoromethyl)benzyl]octahydrocyclopenta[c]pyrrol-4-yl}-2,2-dicyclohexylacetamide], for which the half-inhibitory concentration (IC50) came to 0.51 µM.

Values taken from patent US8691865B2 (AbbVie Inc., priority 2008, dated 2014).
